Experimental data from US5688960A, “Substituted oximes, hydrazones and olefins useful as neurokinin antagonists” (Schering Corporation, priority 1996, dated 1997).

What was measured:
[1] = target: T1, human neurokinin 1 (NK1) receptor (Homo sapiens, UniProt P25103); test: Neurokinin receptor binding assay, [3H]-Substance P competition, CHO cell membranes (NK1); settings: [3H]-Substance P 0.8 nM
T1 construct: expressed in transfected cells; host or cells: Chinese Hamster ovary (CHO) cells; membranes
T1 sequence (P25103 whole entry): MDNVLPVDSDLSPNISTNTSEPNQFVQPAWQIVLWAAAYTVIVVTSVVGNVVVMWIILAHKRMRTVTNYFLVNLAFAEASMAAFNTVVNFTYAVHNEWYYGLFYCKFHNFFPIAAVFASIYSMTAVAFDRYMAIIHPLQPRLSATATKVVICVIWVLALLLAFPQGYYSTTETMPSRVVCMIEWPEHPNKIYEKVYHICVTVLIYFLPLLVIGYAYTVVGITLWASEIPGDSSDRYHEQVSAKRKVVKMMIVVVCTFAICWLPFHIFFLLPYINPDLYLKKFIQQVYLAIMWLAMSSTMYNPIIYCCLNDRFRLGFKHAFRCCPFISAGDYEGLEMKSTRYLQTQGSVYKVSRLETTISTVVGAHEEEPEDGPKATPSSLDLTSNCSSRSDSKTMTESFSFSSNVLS
Method: (§1) Chinese Hamster ovary (CHO) cells transfected with the coding regions for the human neurokinin 1 (NK1) of the human neurokinin 2 (NK2) receptors are grown in Dulbecco's minimal essential medium supplemented with 10% fetal calf serum, 0.1 mM non-essential amino acids, 2 mM glutamine, 100 units/ml of penicillin and streptomycin, and 0.8 mg of G418/ml at 37° C. in a humidified atmosphere containing 5% CO2.
(§2) Cells are detached from T-175 flasks with a sterile solution containing 5 mM EDTA in phosphate buffered saline. Cells are harvested by centrifugation and washed in RPMI media at […] for 5 minutes. […]
(§3) To assay receptor binding, 50 μl of [^3 H]-Substance P (9-Sar, 11-Met) (specific activity 41 Ci/mmol) (Dupont-NEN) (0.8 nM for the NK-1 assay) or [^3 H]-Neurokinin A (specific activity 114 Ci/mmole) (Zenca) (1.0 nM for the NK-2 assay) is added to tubes containing buffer (50 mM Tris-HCl (pH 7.4) with 1 mM MnCl2 and 0.2% Bovine Serum Albumin) and either DMSO or test compound. […] Filters are added to 6 mls of Ready-Safe liquid scintillation cocktail and quantified by liquid scintillation spectrometry in a LKB 1219 RackBeta counter. Non-specific binding is determined by the addition of either 1 μM of CP-99994 (NK-1) or 1 μM SR-48968 (NK-2) (both synthesized by the chemistry department of Schering-Plough Research Institute). […]

[2] = target: T2, human neurokinin 2 (NK2) receptor (Homo sapiens, UniProt P21452); test: Neurokinin receptor binding assay, [3H]-Neurokinin A competition, CHO cell membranes (NK2); settings: [3H]-Neurokinin A 1.0 nM
T2 construct: expressed in transfected cells; host or cells: Chinese Hamster ovary (CHO) cells; membranes
T2 sequence (P21452 1-398): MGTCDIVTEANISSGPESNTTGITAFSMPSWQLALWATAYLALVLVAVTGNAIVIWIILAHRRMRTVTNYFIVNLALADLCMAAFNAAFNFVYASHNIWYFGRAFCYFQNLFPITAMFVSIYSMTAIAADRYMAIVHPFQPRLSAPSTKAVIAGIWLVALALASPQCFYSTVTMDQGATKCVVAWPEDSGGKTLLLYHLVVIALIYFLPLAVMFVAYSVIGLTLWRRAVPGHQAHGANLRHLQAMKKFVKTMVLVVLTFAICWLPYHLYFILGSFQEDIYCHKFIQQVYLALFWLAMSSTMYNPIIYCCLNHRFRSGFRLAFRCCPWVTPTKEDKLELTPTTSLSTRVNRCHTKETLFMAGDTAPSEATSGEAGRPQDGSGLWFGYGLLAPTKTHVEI
Method: as §1, §2, §3

Compound: CON=C(CN(C)C(=O)c1cc(C)cc(C)c1)C(CCN1CCC(O)(c2ccccc2)CC1)c1csc2ccccc12 (stereo not shown) [Example 7B]
- Ki [1]: 0.65 nM
- Ki [2]: 4.5 nM

Compound: OCCON=C(COCc1cc(C(F)(F)F)cc(C(F)(F)F)c1)C(CCN1CCC(O)(c2ccccc2)CC1)c1csc2ccccc12 (stereo not shown) [Example 4D]
- Ki [1]: 1.8 nM
- Ki [2]: 23 nM
